Reference: PubChem BioAssay AID489035 (Sanford-Burnham Center for Chemical Genomics, 2010)
Calls of active or inactive are those of the source. The rule behind the calls is not given here.

Tested on: Jurkat NF-kB reporter, TCR-induced, luciferase luminescence
Assay: T-cell NF-kB luciferase reporter inhibition – Jurkat cells, luminescence, dose response (AID 489035)

With `COc1cc(-c2noc(C)c2-c2ccc3[nH]ccc3c2)cc(OC)c1OC` as the compound, how does the IC50 read?
Its IC50 is 25.3 µM (inactive).

How did the IC50 turn out when `CCCCc1ccc(NC(=O)C(=O)NCCN2CCN(Cc3ccc([N+](=O)[O-])cc3)CC2)cc1` was run?
Its IC50 is > 80 µM (inactive).

Which IC50 does the source give for `COc1ccccc1C(=O)Nc1nc2ccccc2s1` here?
The IC50 was 0.77 µM.

For `CCCCCCCCCCCCCCCC[n+]1ccc(/C=N/O)cc1`, which IC50 is on record?
The IC50 was 1.57 µM.

With `O=C(Nc1ccc(N2CCOCC2)cc1)c1ccc(Cl)c(S(=O)(=O)N2CCCCC2)c1` as the compound, how does the IC50 read?
The IC50 was > 80 µM (inactive).

Which IC50 does the source give for `CCC1CCCCN1C(=O)c1cc(COc2ccc3ncccc3c2)on1` (stereo not given) here?
The IC50 was > 80 µM (inactive).

For `COc1ccc(/C=C2/C(=O)OCc3cc(OC)c(OC)cc32)cc1`, which IC50 is on record?
Its IC50 is > 80 µM (inactive).

For `Cn1nc(-c2ccccn2)nc2c(=O)n(C)c(=O)nc1-2`, which IC50 is on record?
The IC50 was 12.4 µM.

For `C/C=C(\C)C(=O)N[C@@H](c1ccccc1)[C@@H](O)C(=O)O[C@H]1C[C@@]2(O)[C@@H](OC(=O)c3ccccc3)C3[C@](C)(C(=O)[C@H](OC(C)=O)C(=C1C)C2(C)C)[C@H](O)C[C@H]1OC[C@@]31OC(C)=O` (stereo not given in full), which IC50 is on record?
The IC50 was < 0.16 µM.

`CCCC(=O)NC(c1ccc(C(C)C)cc1)c1ccc2cccnc2c1O` (stereo not given) was tested. Which IC50 did it give?
Its IC50 is 4.15 µM.

For `CCOc1ccccc1N1CC(O)=C(c2nc3ccccc3s2)C1=N`, which IC50 is on record?
The IC50 was 26.7 µM (inactive).

How did the IC50 turn out when `N/C(=N\OCc1ccc([N+](=O)[O-])cc1)c1ccccn1` was run?
The IC50 was 0.67 µM.

Which IC50 does the source give for `CCN(CC)c1ccc(/C=N/NC(=O)c2nnn(-c3nonc3N)c2C(C)C)c(O)c1` here?
The IC50 was 2.02 µM.

For `Cc1cc(-c2ccc(S(=O)(=O)N(C)c3ccc(C)c(C)c3)s2)on1`, which IC50 is on record?
The IC50 was > 80 µM (inactive).

How did the IC50 turn out when `O=C1C=CCC(/C=C/c2ccccc2)O1` (stereo not given) was run?
The IC50 was 0.17 µM.

For `COc1ccc(-n2nnnc2-c2ccccc2)cc1`, which IC50 is on record?
Its IC50 is > 80 µM (inactive).

With `CCCCCn1c2c(c(=N)c3ccccc31)CCC2` as the compound, how does the IC50 read?
Its IC50 is > 80 µM (inactive).

With `O=C(N=Nc1c(O)[nH]c2ccc(Br)cc12)c1ccccc1-n1cccc1` as the compound, how does the IC50 read?
Its IC50 is 50.2 µM (inactive).

How did the IC50 turn out when `COc1ccc(-c2ccc3oc(-c4ccc(OC)cc4)c(C#CCO)c3c2)cc1` was run?
The IC50 was > 80 µM (inactive).

`Cc1cc(C)nc(SCC(=O)Nc2ccnc3ccccc23)n1` was tested. Which IC50 did it give?
Its IC50 is > 80 µM (inactive).

For `CCCC(=O)NC(c1ccc(N(C)C)cc1)c1ccc2cccnc2c1O` (stereo not given), which IC50 is on record?
The IC50 was 6.58 µM.

`C#CC[N+](C)(C)CCCCCCCCCCCC` was tested. Which IC50 did it give?
The IC50 was 9.77 µM.

For `COc1cccc(C2CC(=O)Nc3cc4c(cc32)CCC4)c1` (stereo not given), which IC50 is on record?
The IC50 was > 80 µM (inactive).

With `Cc1ccc(O)c(NC(=O)c2cc(-c3ccccc3)on2)c1` as the compound, how does the IC50 read?
Its IC50 is > 80 µM (inactive).

With `CCCC(=O)NC(c1ccc(OC)cc1)c1ccc2cccnc2c1O` (stereo not given) as the compound, how does the IC50 read?
The IC50 was 2.83 µM.

Which IC50 does the source give for `COC(=O)C1CN(C#N)N(c2ccc(Cl)cc2)C12c1ccccc1-c1ccccc12` (stereo not given) here?
Its IC50 is 0.9 µM.

How did the IC50 turn out when `COc1cc(C(=O)N/N=C/c2cc([N+](=O)[O-])cs2)cc(OC)c1OC` was run?
Its IC50 is > 80 µM (inactive).

For `COc1cc(/C=C/C(=O)c2ccc([N+](=O)[O-])o2)ccc1O`, which IC50 is on record?
Its IC50 is 1.86 µM.

`COc1cc(-c2noc(C)c2C#Cc2ccsc2)cc(OC)c1OC` was tested. Which IC50 did it give?
Its IC50 is > 80 µM (inactive).

For `O=C(c1ccccc1)c1cc([N+](=O)[O-])ccc1N1CCOCC1`, which IC50 is on record?
Its IC50 is > 80 µM (inactive).

With `COc1ccc(NC(=O)/C(Cl)=C(/Cl)S(=O)Cc2ccc(C)cc2)cn1` (stereo not given) as the compound, how does the IC50 read?
The IC50 was 0.32 µM.

Which IC50 does the source give for `COc1ccc(Cl)cc1NC(=O)CN(C)CC(=O)Nc1ccccc1N1CCOCC1` here?
Its IC50 is 41.5 µM (inactive).

For `Cc1c(C(=O)N/N=C/c2c(O)ccc3ccccc23)nnn1-c1nonc1N`, which IC50 is on record?
The IC50 was > 80 µM (inactive).

For `CC(=O)Nc1ccc(S(=O)(=O)N2c3ccccc3C(C)=CC2(C)C)cc1`, which IC50 is on record?
Its IC50 is 24.4 µM (inactive).

`COc1cccc(-c2cc(=O)c3cc(NC(=O)c4ccccc4)ccc3[nH]2)c1` was tested. Which IC50 did it give?
The IC50 was > 80 µM (inactive).

`Cc1cc(NC(=O)CSc2nc3ccccc3c(=O)n2C2CCCC2)no1` was tested. Which IC50 did it give?
The IC50 was > 80 µM (inactive).

With `O=c1cc(-c2ccccc2)[nH]c2ccccc12` as the compound, how does the IC50 read?
Its IC50 is > 80 µM (inactive).

`CN(Cc1ccccc1)C1=CC(=[N+]2CCCC2)CC(C)(C)C1` was tested. Which IC50 did it give?
The IC50 was 55.1 µM (inactive).

How did the IC50 turn out when `c1ccc2c(c1)CCN(c1ncnc3c1[nH]c1ccccc13)C2` was run?
The IC50 was 24.2 µM (inactive).

Which IC50 does the source give for `COc1ccc(Cn2c(SCc3ccc(C)cc3)nc3cc(OC)c(OC)cc3c2=N)cc1Cl` here?
Its IC50 is 3.51 µM.

For `Cc1csc2ncnc(NC3CCN(Cc4ccccc4)CC3)c12`, which IC50 is on record?
Its IC50 is > 80 µM (inactive).

For `CC[C@]1(O)CC2CN(CCc3c([nH]c4ccccc34)[C@@](C(=O)OC)(c3cc4c(cc3OC)N(C=O)[C@H]3[C@@](O)(C(=O)OC)[C@H](OC(C)=O)[C@]5(CC)C=CCN6CC[C@]43[C@@H]65)C2)C1` (stereo not given in full), which IC50 is on record?
The IC50 was > 80 µM (inactive).

How did the IC50 turn out when `COc1ccc(C(=O)N(C)Cc2cnn(Cc3ccccc3)c2)cc1S(=O)(=O)N1CCOCC1` was run?
The IC50 was > 80 µM (inactive).

`CSC1=NC(C(Cl)(Cl)Cl)N=C(c2ccc(C)cc2)N1` (stereo not given) was tested. Which IC50 did it give?
Its IC50 is > 80 µM (inactive).

For `O=C(NCCOc1ccccc1)c1cc([N+](=O)[O-])ccc1N1CCOCC1`, which IC50 is on record?
The IC50 was > 80 µM (inactive).

`COc1ccc(NC(=O)C(=O)NCC2CCCN2S(=O)(=O)c2ccc(C)cc2)cc1` (stereo not given) was tested. Which IC50 did it give?
The IC50 was > 80 µM (inactive).

For `COc1cc(C(=O)N2CCN(c3cc(Cl)ccc3Cl)CC2)cc(OC)c1OC`, which IC50 is on record?
Its IC50 is 24.5 µM (inactive).

For `CCC(=O)N1c2ccc(S(=O)(=O)N3CCN(c4ccc([N+](=O)[O-])cc4)CC3)cc2CC1C` (stereo not given), which IC50 is on record?
Its IC50 is > 80 µM (inactive).

With `O=C(OCCN1C(=O)c2cccc3c(N4CCOCC4)ccc(c23)C1=O)c1ccc(Cl)cc1` as the compound, how does the IC50 read?
Its IC50 is > 80 µM (inactive).

With `Cn1ncnc2c(=O)n(C)c(=O)nc1-2` as the compound, how does the IC50 read?
The IC50 was 0.51 µM.

`C/C=C/COC(=O)c1[nH]c2c(c1C)C(=O)CC(c1ccco1)C2` (stereo not given) was tested. Which IC50 did it give?
Its IC50 is > 80 µM (inactive).

`Cc1nc2c(=O)n(C)c(=O)nc-2n(C)n1` was tested. Which IC50 did it give?
The IC50 was 0.47 µM.

With `CCO[C@@H]1OC(C(=O)NCc2nc3ccccc3[nH]2)=C[C@H](C(C)(C)C)[C@H]1CCCO` as the compound, how does the IC50 read?
Its IC50 is > 80 µM (inactive).

Which IC50 does the source give for `C=C(C)COc1ccc(-c2n[nH]c(C)c2-c2ccc(OC)c(OC)c2)c(O)c1` here?
Its IC50 is 21.1 µM (inactive).

Which IC50 does the source give for `CCCCN1/C(=C/c2ccc3ccccc3[n+]2CC)Sc2ccccc21` here?
Its IC50 is > 80 µM (inactive).

`COc1cccc(CN(C)C(=O)c2cc(COc3ccc4ncccc4c3)on2)c1` was tested. Which IC50 did it give?
The IC50 was 12.5 µM.

With `Cc1ccc(NC(=O)c2cc3ccccc3oc2=O)cc1S(=O)(=O)N(C)C` as the compound, how does the IC50 read?
Its IC50 is 0.98 µM.

With `Cc1ccc(Oc2ccc(OCC(=O)Nc3ccncc3)cc2)cc1` as the compound, how does the IC50 read?
Its IC50 is 19.3 µM.

`COc1ccc(S(=O)(=O)N2N=C(C)Oc3ccccc3C2=O)cc1` was tested. Which IC50 did it give?
The IC50 was 33 µM (inactive).

With `Cc1cc2c(cc1C)C(c1ccccc1OC(C)C)CC(=O)N2` (stereo not given) as the compound, how does the IC50 read?
The IC50 was 7.61 µM.

With `COc1cc(/C=C2/SC(=Nc3ccc(O)cc3)NC2=O)ccc1O` as the compound, how does the IC50 read?
Its IC50 is 10.6 µM.

How did the IC50 turn out when `COc1cc(C2c3cc4c(cc3C(OC3OC5COC(c6cccs6)OC5C(O)C3O)C3COC(=O)C23)OCO4)cc(OC)c1O` (stereo not given) was run?
The IC50 was 0.68 µM.

Which IC50 does the source give for `CCCOC(=O)c1[nH]c2c(c1C)C(=O)CC(c1cccs1)C2` (stereo not given) here?
Its IC50 is 32.1 µM (inactive).

For `CCOc1ccc(S(=O)(=O)N2c3ccccc3CC2C)cc1` (stereo not given), which IC50 is on record?
Its IC50 is 8.42 µM.

Which IC50 does the source give for `COC(=O)Cc1[nH]n(-c2nc3ccccc3s2)c(=O)c1C(C)=Nc1ccc(OC)cc1` here?
The IC50 was 6.49 µM.

Which IC50 does the source give for `Cc1cccc(N2CCN(C(=O)c3c(-c4ccccc4)noc3C)CC2)c1C` here?
The IC50 was > 80 µM (inactive).

With `CC(=O)c1sc2c(c1OC(=O)c1ccc(Cl)cc1Cl)c(=O)n(-c1ccccc1)c(=S)n2-c1ccccc1` as the compound, how does the IC50 read?
The IC50 was 1.35 µM.

Which IC50 does the source give for `CCCCN=C[C@]12CCC(O)CC1(O)CCC1[C@@H]2CC[C@]2(C)[C@H](C3C=CC(=O)O3)CCC12O` (stereo not given in full) here?
The IC50 was > 80 µM (inactive).

For `CCSc1nc2ccccc2n1C(=O)/C=C\c1ccc(OC)c(OC)c1`, which IC50 is on record?
The IC50 was 2.27 µM.

With `CCOc1ccc(NC(=O)c2cc3c(C)nc4ccccc4c3o2)cc1` as the compound, how does the IC50 read?
Its IC50 is > 80 µM (inactive).
